The values below come from paper PMC3809587, “Structure and function of the Smoothened extracellular domain in vertebrate Hedgehog signaling” (eLife, 2013).

One may read the Kd as the equilibrium constant for the complex coming apart.

One experiment addresses T1, mSmo CRD-Fc (Mus musculus, UniProt P56726).
T1 construct: made in house; host or cells: 293F suspension cells (secreted)
T1 sequence (P56726 33-183): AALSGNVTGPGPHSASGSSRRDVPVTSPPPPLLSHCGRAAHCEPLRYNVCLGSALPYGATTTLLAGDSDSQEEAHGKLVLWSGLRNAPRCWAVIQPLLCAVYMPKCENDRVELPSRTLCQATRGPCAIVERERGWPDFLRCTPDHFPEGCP
The experiment is described as follows: Ligand affinity chromatography: mSmo CRD-Fc binding to 20(S)-OHC beads. To be noted: for inhibition of binding of mSmo CRD-Fc to 20(S)-OHC beads: free compound added as competitor. On the procedure: After binding was allowed to proceed for 12 hr at 4°C, the resin was washed and captured protein was eluted as described above. The presence of mSmo CRD-Fc was measured by an anti-human HRP-coupled antibody (1:20,000) or anti-human IR800-coupled antibody (1:10,000; for all quantitation, detected by LiCor Odyssey). The presence of zSmo ectodomain protein was measured by colloidal Coomassie staining (GelCode Blue, Pierce/Thermo Scientific). […]

The subject of experiment [1] is endogenous mSmo in cilia of NIH 3T3 cells. The experiment can be described thus: Immunofluorescence of ciliary Smo accumulation. The class given is cell-based, mouse. The following applies: NIH 3T3, 4 hr, presence of Shh.
In a further experiment the test system is Zebrafish embryos. The experiment can be described thus: Zebrafish embryo treatment: eng2a:GFP reporter and ptch2 in situ hybridization. It counts as in vivo. To be noted: 30hpf embryos, 20(S)-OHC 50 µM; for eng2a:GFP reporter expression: cyclopamine 40 µM. The protocol:
Adult fishes were maintained on a 14-hr light/10-hr dark cycle at 28°C in the AVA (Singapore) certified IMCB Zebrafish Facility. Zebrafish strain used was Tg(eng2a:eGFP)^i233 ([Maurya et al., 2011]).
The embryos of Tg(eng2a:eGFP)^i233 were dechorinated using pronase (Roche) at one cell stage. […] Control embryos were kept in water containing the same amount of ethanol, used as the vehicle for the drugs. Standard in situ hybridization (ISH) was performed with anti-Dig alkaline phosphatase and chromogenic substrate NBT/BCIP as previously described ([Oxtoby and Jowett, 1993]). ptch2 (formerly ptc1) RNA probe was prepared from template as previously described ([Concordet et al., 1996]).

Another experiment has as its target T2, ΔCRD-YFP-mSmo (Mus musculus, UniProt P56726, DEL68-184).
T2 construct: All mSmo mutants were made using Quickchange or PCR methods in the context of a previously described construct encoding full-length mouse Smo (UniProt P56726); expressed in transfected cells
The experiment is described as follows: Hh signaling by ΔCRD-YFP-mSmo in Smo−/− cells (immunoblot, Hh reporter). It counts as cell-based.

The subject of experiment [2] is Hh reporter (8xGli-responsive promoter). The following applies: ref Nachtergaele et al., 2012; cited from earlier work.
Experiment [3] deals with endogenous mSmo in cilia of NIH 3T3 cells. On the set-up: method as in Rohatgi et al., 2009. The following applies: absence of Shh; ref Rohatgi et al., 2009; cited from earlier work.
The next experiment addresses T3, zSmo ectodomain (Danio rerio, UniProt Q5RH73).
T3 construct: zSmo-ectodomain: a.a; 29–212), fused C-terminally with a with a hexa-histidine (His6) tag; His6 (C); made in house
T3 sequence (Q5RH73 29-212): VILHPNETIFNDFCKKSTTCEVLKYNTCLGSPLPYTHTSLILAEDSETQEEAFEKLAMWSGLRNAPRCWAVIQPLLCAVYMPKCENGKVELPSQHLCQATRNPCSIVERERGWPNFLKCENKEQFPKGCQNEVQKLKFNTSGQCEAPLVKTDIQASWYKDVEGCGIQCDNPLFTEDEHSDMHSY
The experiment is described as follows: Ligand affinity chromatography: zSmo ectodomain binding to 20(S)-OHC beads. On the set-up: species or system zebrafish. On the procedure: For ligand affinity chromatography with purified mSmo CRD-Fc or zSmo ectodomain, protein was diluted in 20 mM Tris pH 8.5, 150 mM NaCl, 0.3% octyl-glucoside prior to addition of competitors and 20(S)-OHC beads. After binding was allowed to proceed for 12 hr at 4°C, the resin was washed and captured protein was eluted as described above. The presence of mSmo CRD-Fc was measured by an anti-human HRP-coupled antibody (1:20,000) or anti-human IR800-coupled antibody (1:10,000; for all quantitation, detected by LiCor Odyssey). The presence of zSmo ectodomain protein was measured by colloidal Coomassie staining (GelCode Blue, Pierce/Thermo Scientific).
For Hh reporter assays, each point is reported as the mean ± standard deviation (SD) derived from triplicates. Each result in the paper was repeated at least three times with similar outcomes. Relative luciferase activity was calculated by dividing Gli luciferase by Renilla luciferase luminescence. Fold-change in reporter activity was calculated by dividing each replicate by the mean reporter activity of the vehicle-treated control. Normalized (% of max) Hh reporter activity was calculated by setting the maximum value of a set to 100% and zero to 0% using the ‘normalize’ function of GraphPad Prism. […]

Experiment [4] addresses T4, YFP-mSmo (Mus musculus, UniProt P56726).
T4 construct: Smo^−/− cells stably expressing full-length (FL) YFP-mSmo or ΔCRD-YFP-mSmo were treated with Shh, SAG (100 nM) or 20(S)-OHC (10 μM); expressed in transfected cells
The experiment can be described thus: Gli1 and Gli3R immunoblot in Smo−/−:YFP-mSmo cells. It counts as cell-based. To be noted: SAG 100 nM, 20(S)-OHC 10 μM. On the procedure: Cultured cells stably expressing YFP-mSmo, ΔCRD-YFP-mSmo, or ΔC-YFP-mSmo were scraped into ice-cold PBS containing SigmaFast Protease inhibitor cocktail (Sigma) and collected as a pellet by centrifugation (1000×g, 10 min, 4°C). Cells were lysed (1 hr, 4°C) by agitation in modified RIPA buffer (50 mM sodium-Tris pH 7.4, 150 mM sodium chloride, 2% NP-40, 0.5% deoxycholate, 0.1% sodium-dodecyl sulfate [SDS], 1 mM dithiothreitol and the SigmaFast Protease inhibitor cocktail). After clarification (20,000×g, 45 min, 4°C), the protein concentration of each lysate was measured using the bicinchoninic acid assay (BCA, Pierce/Thermo Scientific, Rockford, IL). Lysate aliquots containing equal amount of total protein were fractionated on an 8% SDS-PAGE gel and transferred to a nitrocellulose membrane for immunoblotting with anti-Gli1 antibody (#L42B10, 1:500; Cell Signaling, Denvers, MA), anti-GFP antibody (1:5000; Novus, Littleton, CO), anti-Gli3 antibody (AF3690 1:200; R&D, Minneapolis, MN) and anti-p38 antibody (ab31828, 1:2000; Abcam, Cambridge, MA). In Figures 1–4, vertical dashed black lines represent non-contiguous lanes from the same immunoblot juxtaposed for clarity.
On the technique in general: In western blotting, separated proteins are transferred to a membrane and probed.

Experiment [5] addresses T4, YFP-mSmo. The experiment can be described thus: 20(S)-OHC bead pull-down of YFP-mSmo from cell lysates. It counts as binding. The following applies: 50 μM free 20(S)-OHC as competitor. The protocol: 293T cells transfected with constructs encoding mSmo variants were lysed in hypotonic SEAT buffer (250 mM sucrose, 1 mM EDTA, 10 mM acetic acid, 10 mM triethanolamine and the SigmaFast EDTA-Free protease inhibitor cocktail). After the removal of nuclei by centrifugation (900×g, 5 min, 4°C), membranes were pelleted by ultracentrifugation (95,000×g, 30 min) and solubilized in a n-dodecyl-β-D-maltopyranoside (DDM) extraction buffer (50 mM Tris pH 7.4, 150 mM NaCl, 10% vol/vol glycerol, 0.5% wt/vol DDM and the SigmaFast EDTA-Free protease inhibitor cocktail) for 2 hr at 4°C, followed by removal of insoluble material by ultracentrifugation (100,000×g, 30 min). This DDM membrane extract was incubated with 20(S)-OHC beads for 12 hr at 4°C to allow binding to equilibrium. After extensive washing, proteins captured on the beads were eluted with reducing SDS sample buffer. The presence of YFP-mSmo in these eluates was determined by quantitative immunoblotting with an anti-YFP antibody (NB600-308, 1:5000; Novus) and infrared imaging (Li-Cor Odyssey).

Experiment [6] relates to Drosophila melanogaster Smo (dSmo) and dSmo CRD. The experiment can be described thus: 20(S)-OHC bead binding of Drosophila Smo. The following applies: bead-immobilized 20(S)-OHC.

T4 sequence (P56726 33-793): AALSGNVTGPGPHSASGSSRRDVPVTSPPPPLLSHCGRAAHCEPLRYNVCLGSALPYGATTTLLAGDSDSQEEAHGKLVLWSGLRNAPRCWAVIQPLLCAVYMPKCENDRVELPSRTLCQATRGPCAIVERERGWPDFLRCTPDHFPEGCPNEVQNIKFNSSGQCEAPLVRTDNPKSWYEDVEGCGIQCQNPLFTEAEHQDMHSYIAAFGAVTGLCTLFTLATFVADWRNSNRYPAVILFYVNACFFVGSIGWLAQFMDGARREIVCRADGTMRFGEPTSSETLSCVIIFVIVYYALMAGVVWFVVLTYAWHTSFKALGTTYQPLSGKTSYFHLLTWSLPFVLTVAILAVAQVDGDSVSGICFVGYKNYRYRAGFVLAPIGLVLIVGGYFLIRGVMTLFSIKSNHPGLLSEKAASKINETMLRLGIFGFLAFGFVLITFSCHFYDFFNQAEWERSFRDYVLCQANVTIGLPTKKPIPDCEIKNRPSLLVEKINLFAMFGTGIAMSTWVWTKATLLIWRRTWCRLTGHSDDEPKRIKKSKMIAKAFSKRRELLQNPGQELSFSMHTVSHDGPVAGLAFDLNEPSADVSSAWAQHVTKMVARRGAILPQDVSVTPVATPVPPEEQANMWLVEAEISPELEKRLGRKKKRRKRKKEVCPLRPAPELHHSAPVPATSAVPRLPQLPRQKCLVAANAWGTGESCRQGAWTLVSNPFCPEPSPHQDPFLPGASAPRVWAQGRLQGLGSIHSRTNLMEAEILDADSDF
T2 sequence (P56726 with tags, fused parts or gaps DEL68-184): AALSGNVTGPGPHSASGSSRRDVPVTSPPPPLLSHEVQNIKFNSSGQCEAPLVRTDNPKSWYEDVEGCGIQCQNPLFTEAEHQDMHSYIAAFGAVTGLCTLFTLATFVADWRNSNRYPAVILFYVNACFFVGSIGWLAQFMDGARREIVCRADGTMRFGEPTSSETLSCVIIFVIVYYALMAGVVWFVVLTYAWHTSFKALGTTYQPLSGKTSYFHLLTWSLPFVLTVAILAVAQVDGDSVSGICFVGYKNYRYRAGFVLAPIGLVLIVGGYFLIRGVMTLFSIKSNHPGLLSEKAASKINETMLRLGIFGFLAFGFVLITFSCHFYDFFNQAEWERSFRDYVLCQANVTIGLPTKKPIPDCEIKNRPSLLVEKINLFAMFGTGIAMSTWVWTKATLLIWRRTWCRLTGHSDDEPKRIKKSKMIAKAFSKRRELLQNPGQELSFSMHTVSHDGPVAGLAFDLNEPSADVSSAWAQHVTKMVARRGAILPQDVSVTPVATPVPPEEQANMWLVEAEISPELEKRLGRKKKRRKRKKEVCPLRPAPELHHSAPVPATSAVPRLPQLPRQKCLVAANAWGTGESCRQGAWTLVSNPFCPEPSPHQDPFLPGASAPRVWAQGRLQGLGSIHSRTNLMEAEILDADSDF

For the compound `CC1=C2C[C@H]3[C@@H](CC=C4C[C@@H](O)CC[C@@]43C)[C@@H]2CC[C@]12O[C@@H]1C[C@H](C)CN[C@H]1[C@H]2C` [cyclopamine], the “inhibition of binding of mSmo CRD-Fc to 20(S)-OHC beads” value at mSmo CRD-Fc is given as “blocked the interaction”. Further, in experiment [1], the “Shh-induced Smo accumulation in cilia” value was “do not block Smo ciliary accumulation”. Also, the “eng2a:GFP reporter expression” value in the experiment on Zebrafish embryos is on record as “suppressed expression of the reporter gene”. Moreover, at ΔCRD-YFP-mSmo (SAG 25 nM, cyclopamine 5 μM, Hh reporter), the “inhibition of SAG activated ΔCRD-YFP-mSmo” value is recorded as “remained susceptible to inhibition by cyclopamine”. Further, the “potency against Shh-activated Smo compared to 20(S)-OHC-activated Smo” value in [2] is given as “much less potent”. Moreover, the “Smo accumulation in cilia, compound alone” value in experiment [3] is listed as “can drive Smo accumulation in cilia even in the absence of Shh”.

As for `CC(C)CCC[C@](C)(O)[C@H]1CC[C@H]2[C@@H]3CC=C4C[C@@H](O)CC[C@]4(C)[C@H]3CC[C@@]21C` [20(S)-OHC, 20(S)-hydroxycholesterol], the Kd at mSmo CRD-Fc (fixed amount of protein, increasing amounts of bead-immobilized sterol, read-out: Kd, mSmo CRD-Fc-20(S)-OHC interaction) is roughly 180 nM. The “inhibition of binding of mSmo CRD-Fc to 20(S)-OHC beads” value on mSmo CRD-Fc is recorded as “Binding could be inhibited”. On zSmo ectodomain (fixed amount of protein, increasing amounts of bead-immobilized sterol, read-out: Kd, zSmo ectodomain-20(S)-OHC interaction), the Kd is roughly 170 nM. On zSmo ectodomain (free compound added as competitor), the “inhibition of binding of zSmo ectodomain to 20(S)-OHC beads” value is reported as “inhibited in a dose-responsive fashion”. Further, in the experiment with Zebrafish embryos, the “ptch2 expression by in situ hybridization” value is given as “modest expansion of the expression domain” and the “eng2a:GFP reporter expression” value is given as “significant increase in the number of GFP positive fast twitch muscles”. For the same compound, on YFP-mSmo [4], the Gli3R level entry was “loss of the repressor form of Gli3 (Gli3R) was observed” and the “activation of Hh target gene Gli1” value is recorded as “could activate a Hh target gene, Gli1”. On ΔCRD-YFP-mSmo (SAG 100 nM, 20(S)-OHC 10 μM), the “response of ΔCRD-YFP-mSmo to agonist (Hh target genes, Gli3R)” value is given as “failed to activate Hh target genes or to extinguish Gli3R levels”. Also, the “competition of YFP-mSmo binding to 20(S)-OHC beads” value on YFP-mSmo [5] is listed as “Binding to beads was not seen”. Further, in experiment [6], the “binding of dSmo and dSmo CRD to 20(S)-OHC beads” value is on record as “failed to bind 20(S)-OHC beads”.
